{
  "source": "BindingDB's records for patent US10849881",
  "about": "(Hoffmann-La Roche, 2020)",
  "biological_target": "Autotaxin (Homo sapiens, UniProt Q13822)",
  "test": "Enzyme Inhibition Assay",
  "method": "ATX inhibition was measured by a fluorescence quenching assay using a specifically labeled substrate analogue (MR121 substrate). To obtain this MR121 substrate, BOC and TBS protected 6-amino-hexanoic acid (R)-3-({2-[3-(2-{2-[2-(2-amino-ethoxy)-ethoxy]-ethoxy}-ethoxy)-propionylamino]-ethoxy}-hydroxy-phosphoryloxy)-2-hydroxy-propyl ester (Ferguson et al., Org Lett 2006, 8 (10), 2023) was labeled with MR121 fluorophore (CAS 185308-24-1, 1-(3-carboxypropyl)-11-ethyl-1,2,3,4,8,9,10,11-octahydro-dipyrido[3,2-b:2′,3′-i]phenoxazin-13-ium) on the free amine of the ethanolamine side and then, after deprotection, subsequently with tryptophan on the side of the aminohexanoic acid.Assay working solutions were made as follows:Assay buffer (50 mM Tris-HCl, 140 mM NaCl, 5 mM KCl, 1 mM CaCl2, 1 mM MgCl2, 0.01% Triton-X-100, pH 8.0;ATX solution: ATX (human His-tagged) stock solution (1.08 mg/mL in 20 mM bicine, pH 8.5, 0.15 M NaCl, 10% glycerol, 0.3% CHAPS, 0.02% NaN3), diluted to 1.4-2.5× final concentration in assay buffer;MR121 substrate solution: MR121 substrate stock solution (800 μM MR121 substrate in DMSO), diluted to 2-5× final concentration in assay buffer.",
  "data": [
    {"smiles": "O=C(c1ccc2cc(Br)ccc2c1)N1C[C@@H]2[C@H](C1)[C@H]1CN(C(=O)c3ccc4[nH]nnc4c3)C[C@@H]21", "note": "[US10849881, Example 1.004]", "values": [
      {"measurement": "IC50", "value": 17, "unit": "nM"}
    ]}
  ]
}
